Data reported in PubChem BioAssay (NCI).
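How tested: cells in 96-well plates exposed to compound for 48 hours at five concentrations. Here, GI50 denotes the concentration required for 50% inhibition of growth. TGI marks complete inhibition of growth.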

Legend:
Experiment in all cases: growth of human tumour cells (NCI), 48 h
[1] = system: 786-0 renal
[2] = system: NCI-H226 lung
[3] = system: PC-3 prostate
[4] = system: T-47D breast
[5] = system: CAKI-1 renal
[6] = system: SF-295 CNS
[7] = system: IGROV1 ovarian
[8] = system: MCF7 breast
[9] = system: SN12C renal
[10] = system: NCI-H522 lung
[11] = system: SK-OV-3 ovarian
[12] = system: SR leukemia
[13] = system: SK-MEL-2 melanoma
[14] = system: M14 melanoma
[15] = system: SNB-75 CNS
[16] = system: RPMI-8226 leukemia
[17] = system: MALME-3M melanoma
[18] = system: SK-MEL-5 melanoma
[19] = system: KM12 colon
[20] = system: HL-60(TB) leukemia
[21] = system: CCRF-CEM leukemia
[22] = system: HOP-62 NSCLC
[23] = system: SW-620 colon
[24] = system: K-562 leukemia
[25] = system: OVCAR-4 ovarian
[26] = system: HCC-2998 colon
[27] = system: SNB-19 CNS
[28] = system: OVCAR-3 ovarian
[29] = system: OVCAR-8 ovarian
[30] = system: RXF 393 renal
[31] = system: U251 CNS
[32] = system: HOP-92 NSCLC
[33] = system: EKVX NSCLC
[34] = system: DU-145 prostate
[35] = system: NCI/ADR-RES ovarian
[36] = system: UO-31 renal
[37] = system: A498 renal
[38] = system: SF-268 CNS
[39] = system: MDA-MB-231 breast
[40] = system: HCT-15 colon
[41] = system: BT-549 breast
[42] = system: TK-10 renal
[43] = system: ACHN renal
[44] = system: HT29 colon
[45] = system: UACC-62 melanoma
[46] = system: SF-539 CNS
[47] = system: MOLT-4 leukemia
[48] = system: OVCAR-5 ovarian
[49] = system: COLO 205 colon
[50] = system: SK-MEL-28 melanoma
[51] = system: LOX IMVI melanoma
[52] = system: NCI-H460 lung
[53] = system: HS 578T breast
[54] = system: MDA-MB-435
[55] = system: NCI-H23 lung
[56] = system: A549 NSCLC
[57] = system: UACC-257 melanoma
[58] = system: HCT-116 colon

Compound: CC1(C)NCCC[C@]2(C)[C@H]3C=CC4=C5C[C@](C)(CO)CC[C@]5(C)CC[C@@]4(C)[C@]3(C)CC[C@@H]12
- GI50 [1]: 2.66 µM
- TGI [1]: 8.59 µM
- GI50 [2]: 4 µM
- TGI [2]: 16.9 µM
- GI50 [3]: 3.05 µM
- TGI [3]: 12.3 µM
- GI50 [4]: 5.38 µM
- TGI [4]: 20.9 µM
- GI50 [5]: 3.7 µM
- TGI [5]: 13.8 µM
- GI50 [6]: 2 µM
- TGI [6]: 4.04 µM
- GI50 [7]: 4.08 µM
- TGI [7]: 14.8 µM
- GI50 [8]: 3.14 µM
- TGI [8]: 14.5 µM
- GI50 [9]: 3.34 µM
- TGI [9]: 12 µM
- GI50 [10]: 2.38 µM
- TGI [10]: 7.31 µM
- GI50 [11]: 14.5 µM
- TGI [11]: 28.6 µM
- GI50 [12]: 2.42 µM
- TGI [12]: 7.17 µM
- GI50 [13]: 3.31 µM
- TGI [13]: 12.2 µM
- GI50 [14]: 3.91 µM
- TGI [14]: 14.8 µM
- GI50 [15]: 3.43 µM
- TGI [15]: 14.8 µM
- GI50 [16]: 3.91 µM
- TGI [16]: 14.9 µM
- GI50 [17]: 2.64 µM
- TGI [17]: 8.01 µM
- GI50 [18]: 2.14 µM
- TGI [18]: 4.94 µM
- GI50 [19]: 6.09 µM
- TGI [19]: 20.3 µM
- GI50 [20]: 2.63 µM
- TGI [20]: 7.02 µM
- GI50 [21]: 3.52 µM
- TGI [21]: 14.6 µM
- GI50 [22]: 2.3 µM
- TGI [22]: 5.16 µM
- GI50 [23]: 5.76 µM
- TGI [23]: 18.8 µM
- GI50 [24]: 3.18 µM
- TGI [24]: 10.8 µM
- GI50 [25]: 5.63 µM
- TGI [25]: 20.8 µM
- GI50 [26]: 10.1 µM
- TGI [26]: 23 µM
- GI50 [27]: 11.6 µM
- TGI [27]: 25.3 µM
- GI50 [28]: 2.69 µM
- TGI [28]: 7.06 µM
- GI50 [29]: 2.56 µM
- TGI [29]: 6.66 µM
- GI50 [30]: 1.84 µM
- TGI [30]: 4.15 µM
- GI50 [31]: 4.17 µM
- TGI [31]: 15.9 µM
- GI50 [32]: 3.1 µM
- TGI [32]: 14.6 µM
- GI50 [33]: 2.77 µM
- TGI [33]: 8.27 µM
- GI50 [34]: 2.25 µM
- TGI [34]: 5.02 µM
- GI50 [35]: 2.02 µM
- TGI [35]: 4.52 µM
- GI50 [36]: 3.59 µM
- TGI [36]: 15.7 µM
- GI50 [37]: 11.4 µM
- TGI [37]: 24.5 µM
- GI50 [38]: 3.27 µM
- TGI [38]: 11.6 µM
- GI50 [39]: 14.5 µM
- TGI [39]: 29.3 µM
- GI50 [40]: 4.21 µM
- TGI [40]: 16.4 µM
- GI50 [41]: 3.46 µM
- TGI [41]: 12.7 µM
- GI50 [42]: 2.66 µM
- TGI [42]: 7.15 µM
- GI50 [43]: 2.93 µM
- TGI [43]: 9.56 µM
- GI50 [44]: 3.25 µM
- TGI [44]: 13.8 µM
- GI50 [45]: 3.13 µM
- TGI [45]: 10.9 µM
- GI50 [46]: 2.69 µM
- TGI [46]: 9.26 µM
- GI50 [47]: 2.46 µM
- TGI [47]: 6.8 µM
- GI50 [48]: 12.4 µM
- TGI [48]: 25.3 µM
- GI50 [49]: 3.63 µM
- TGI [49]: 13.9 µM
- GI50 [50]: 5.87 µM
- TGI [50]: 18.4 µM
- GI50 [51]: 2.49 µM
- TGI [51]: 6.76 µM
- GI50 [52]: 4.17 µM
- TGI [52]: 15.2 µM
- GI50 [53]: 3.2 µM
- TGI [53]: 13.2 µM
- GI50 [54]: 3.76 µM
- TGI [54]: 14 µM
- GI50 [55]: 3.15 µM
- TGI [55]: 12.5 µM
- GI50 [56]: 1.89 µM
- TGI [56]: 3.71 µM
- GI50 [57]: 5.24 µM
- TGI [57]: 17 µM
- GI50 [58]: 2.73 µM
- TGI [58]: 10.6 µM
